Results as given in patent US12275731B2, “Azaindole inhibitors of wild-type and mutant forms of LRRK2” (DANA-FARBER CANCER INSTITUTE, INC., priority 2018, dated 2025).

Assays:
Experiment in all cases: KinomeScan profiling
Assay type in all cases: binding
ANKK1 = molecular target: T1, ANKK1 (Homo sapiens, UniProt Q8NFD2); settings: ANKK1, 1 μM; read-out: % control
T1 construct: purchased KinomeScan®
T1 sequence (Q8NFD2 1-765): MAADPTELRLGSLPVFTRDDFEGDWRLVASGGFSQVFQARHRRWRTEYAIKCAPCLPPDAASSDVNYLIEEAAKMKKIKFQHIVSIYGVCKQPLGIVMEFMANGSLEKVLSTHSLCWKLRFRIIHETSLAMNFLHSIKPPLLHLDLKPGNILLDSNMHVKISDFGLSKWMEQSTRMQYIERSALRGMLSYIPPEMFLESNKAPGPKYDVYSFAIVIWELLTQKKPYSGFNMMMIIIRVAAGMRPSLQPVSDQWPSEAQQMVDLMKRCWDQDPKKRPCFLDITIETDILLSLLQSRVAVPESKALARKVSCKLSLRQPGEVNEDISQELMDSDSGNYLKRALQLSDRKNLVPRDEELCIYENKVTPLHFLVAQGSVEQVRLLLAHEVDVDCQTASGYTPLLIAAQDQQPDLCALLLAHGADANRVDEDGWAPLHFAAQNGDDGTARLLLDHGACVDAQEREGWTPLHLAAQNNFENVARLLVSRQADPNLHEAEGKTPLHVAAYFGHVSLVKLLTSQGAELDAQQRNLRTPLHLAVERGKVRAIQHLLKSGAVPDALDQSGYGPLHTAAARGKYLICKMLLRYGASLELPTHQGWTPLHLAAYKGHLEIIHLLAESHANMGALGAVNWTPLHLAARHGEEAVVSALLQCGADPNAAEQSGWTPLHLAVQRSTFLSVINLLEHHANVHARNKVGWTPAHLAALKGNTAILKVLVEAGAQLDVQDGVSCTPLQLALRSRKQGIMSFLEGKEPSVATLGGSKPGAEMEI
In short: (§1)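 The panel spans 468 kinases, and each inventive compound was applied at 1 μM from DMSO. Lower % control means stronger binding; the activity cut-off is set at less than 35%.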

FLT3(D835Y) = molecular target: T2, FLT3(D835Y) (Homo sapiens, UniProt P36888, D835Y); settings: read-out: % control
T2 sequence (P36888 27-993 D835Y): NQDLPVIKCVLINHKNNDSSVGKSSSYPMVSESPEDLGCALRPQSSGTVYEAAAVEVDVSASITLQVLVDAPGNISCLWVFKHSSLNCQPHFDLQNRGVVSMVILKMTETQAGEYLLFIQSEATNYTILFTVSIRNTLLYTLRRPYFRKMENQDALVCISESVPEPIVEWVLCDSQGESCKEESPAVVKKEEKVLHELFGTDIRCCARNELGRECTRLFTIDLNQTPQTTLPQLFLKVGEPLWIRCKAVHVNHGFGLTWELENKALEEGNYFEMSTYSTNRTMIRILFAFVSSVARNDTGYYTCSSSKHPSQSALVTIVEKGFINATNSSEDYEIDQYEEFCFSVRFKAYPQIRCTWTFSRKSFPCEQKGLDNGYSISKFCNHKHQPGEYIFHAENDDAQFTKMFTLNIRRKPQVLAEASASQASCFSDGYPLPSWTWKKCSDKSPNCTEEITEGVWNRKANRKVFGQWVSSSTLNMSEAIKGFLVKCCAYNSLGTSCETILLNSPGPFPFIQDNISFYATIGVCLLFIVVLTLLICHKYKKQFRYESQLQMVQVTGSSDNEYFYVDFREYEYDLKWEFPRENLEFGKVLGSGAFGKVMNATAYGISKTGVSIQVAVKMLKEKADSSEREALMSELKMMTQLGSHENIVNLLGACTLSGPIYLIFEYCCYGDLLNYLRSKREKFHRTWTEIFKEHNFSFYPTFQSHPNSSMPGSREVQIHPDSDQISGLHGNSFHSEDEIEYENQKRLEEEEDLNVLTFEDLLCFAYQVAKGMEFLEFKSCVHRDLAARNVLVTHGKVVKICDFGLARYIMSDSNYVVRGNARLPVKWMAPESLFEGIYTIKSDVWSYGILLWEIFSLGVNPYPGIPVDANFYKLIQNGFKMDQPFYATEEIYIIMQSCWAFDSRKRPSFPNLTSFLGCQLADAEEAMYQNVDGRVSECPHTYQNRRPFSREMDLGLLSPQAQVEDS
In short: as §1

PFTK1 = PFTK1 (Homo sapiens, UniProt O94921); settings: PFTK1, 1 μM; read-out: % control
In short: as §1

RIPK5 = molecular target: T3, RIPK5 (Homo sapiens, UniProt Q6XUX3); settings: RIPK5, 1 μM; read-out: % control
T3 sequence (Q6XUX3 1-929): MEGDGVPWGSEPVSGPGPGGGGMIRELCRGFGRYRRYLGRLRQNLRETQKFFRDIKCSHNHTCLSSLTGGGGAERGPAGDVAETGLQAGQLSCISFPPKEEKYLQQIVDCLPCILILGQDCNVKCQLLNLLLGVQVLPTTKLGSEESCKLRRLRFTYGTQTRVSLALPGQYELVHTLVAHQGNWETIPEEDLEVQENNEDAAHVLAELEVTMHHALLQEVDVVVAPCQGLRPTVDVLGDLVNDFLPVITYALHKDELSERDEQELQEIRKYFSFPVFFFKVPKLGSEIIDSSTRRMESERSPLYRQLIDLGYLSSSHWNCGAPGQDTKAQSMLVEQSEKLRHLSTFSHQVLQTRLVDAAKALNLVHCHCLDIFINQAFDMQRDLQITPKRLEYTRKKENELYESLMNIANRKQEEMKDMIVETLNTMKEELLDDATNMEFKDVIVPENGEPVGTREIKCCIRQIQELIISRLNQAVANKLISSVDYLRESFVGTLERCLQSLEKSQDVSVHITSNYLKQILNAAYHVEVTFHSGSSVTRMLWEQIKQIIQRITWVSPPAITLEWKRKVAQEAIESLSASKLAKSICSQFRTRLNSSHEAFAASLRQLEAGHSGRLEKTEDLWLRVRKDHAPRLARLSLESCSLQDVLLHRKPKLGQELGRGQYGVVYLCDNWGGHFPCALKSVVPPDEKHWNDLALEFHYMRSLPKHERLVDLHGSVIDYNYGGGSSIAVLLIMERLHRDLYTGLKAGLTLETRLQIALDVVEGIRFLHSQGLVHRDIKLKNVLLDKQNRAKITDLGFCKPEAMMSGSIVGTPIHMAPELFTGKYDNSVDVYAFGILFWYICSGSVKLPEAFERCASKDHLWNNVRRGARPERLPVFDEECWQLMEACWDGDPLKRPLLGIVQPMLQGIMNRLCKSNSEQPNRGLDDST
In short: as §1

Sequence of PFTK1 (O94921 whole entry): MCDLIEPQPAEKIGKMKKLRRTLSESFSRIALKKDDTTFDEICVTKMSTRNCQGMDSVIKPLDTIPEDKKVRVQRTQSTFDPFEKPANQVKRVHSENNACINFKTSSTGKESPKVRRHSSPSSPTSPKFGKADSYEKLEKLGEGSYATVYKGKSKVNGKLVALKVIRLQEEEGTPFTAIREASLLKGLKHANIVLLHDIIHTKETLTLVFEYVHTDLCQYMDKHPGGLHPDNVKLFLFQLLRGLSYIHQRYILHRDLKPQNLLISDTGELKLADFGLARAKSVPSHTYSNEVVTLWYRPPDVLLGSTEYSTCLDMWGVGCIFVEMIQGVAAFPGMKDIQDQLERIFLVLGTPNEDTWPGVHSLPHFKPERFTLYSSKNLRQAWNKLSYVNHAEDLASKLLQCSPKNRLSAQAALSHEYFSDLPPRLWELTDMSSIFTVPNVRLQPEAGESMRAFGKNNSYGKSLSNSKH

Structure (SMILES) | remaining binding at 1 µM (ANKK1) [%] | remaining binding at 1 µM (FLT3(D835Y)) [%] | remaining binding at 1 µM (PFTK1) [%] | remaining binding at 1 µM (RIPK5) [%]
CNc1c(-c2cnn([C@H]3CCN(C(C)=O)C[C@@H]3F)c2)cnc2[nH]cc(Cl)c12 [Compound 77, 1-((3S,4S)-4-(4-(3-chloro-4-(methylamino)-1H-pyrrolo[2,3-b]pyridin-5-yl)-1H-pyrazol-1-yl)-3-fluoropiperidin-1-yl)ethan-1-one] | 73 | 9.7 | 100 | 31
O=C(c1ccc(-c2cnc3[nH]cc(Cl)c3c2NC2CCCC2)cc1)N1CCC(N2CCOCC2)CC1 [Compound 101, (4-(3-chloro-4-(cyclopentylamino)-1H-pyrrolo[2,3-b]pyridin-5-yl)phenyl)(4-morpholinopiperidin-1-yl)methanone] | 100 | 33 | 100 | 50
CNc1c(-c2ccc(C(=O)N3CCC(N4CCOCC4)CC3)cc2)cnc2[nH]cc(Cl)c12 [Compound 96, (4-(3-chloro-4-(methylamino)-1H-pyrrolo[2,3-b]pyridin-5-yl)phenyl)(4-morpholinopiperidin-1-yl)methanone] | 51 | 11 | 100 | 8.6
